From a melting point compilation (Tetko et al.; mined from patent text by program, amines drawn as free bases though some values may be those of a salt)

Row | Compound | melting point [°C]
1 | O=C(O)CCCCCNS(=O)(=O)c1ccccc1 | 113 to 115
2 | COc1ccc(C)c(Nc2c(C#N)cnc3c2C=C2N=C(NCCN4CCOCC4)N=C2C3)c1 | 148 to 150
3 | CCOc1c(C(F)(F)F)ncn(-c2c(Cl)cc(C(F)(F)F)cc2[N+](=O)[O-])c1=O | 97.5 to 100
4 | CCCCOc1cc(C(N)=O)nn1Cc1ccc(Cl)cc1 | 137 to 138
5 | COc1cc(C(F)(F)F)nn1-c1ccc(NC(=O)c2cccnc2F)cc1 | 153 to 154
6 | CCC(=O)Nc1ccc2nc(C(=O)NCc3cccc(OC)c3)[nH]c(=O)c2c1 | 222 to 223
7 | CCOC(=O)c1cc([N+](=O)[O-])c(C)nc1C(=O)OCC | 90 to 91.5
8 | O=[N+]([O-])c1cn(-c2cccnc2)nc1-c1ccccc1 | 144 to 146
9 | COC(=O)Cc1ccc(OCCNC(=O)C2Cc3ccccc3N2S(=O)(=O)c2ccc(-c3ccc(F)cc3OC)cc2)cc1 (configuration not stated) | 70 to 75
10 | CCCc1nn(C)c2c(=O)n(CCOc3ccc(SC(C)(C)C(=O)O)cc3)c(CC)nc12 | 104 to 106
11 | COc1ccc(C(=O)/C(=C\c2ccccc2)C(=O)OC(C)(C)C)c(O)c1 | 105 to 107
12 | COCC1Cc2c(Cl)c(C)cc([N+](=O)[O-])c2O1 (configuration not stated) | 117 to 119
13 | O=C(Oc1ccc(Oc2ccccc2)cc1)N1CCC(CO)CC1 | 71 to 74
14 | O=c1[nH]c2cccnc2n1-c1cc(F)ccc1F | 229
15 | Cn1c2c(ccc1=O)C(NCCc1ccc(Cl)cc1)CCC2 (configuration not stated) | 110 to 112
16 | CN1CCCC1c1ccc(Nc2cc(-c3cc(F)cc(N4CCc5c(sc6c5CCCC6)C4=O)c3CO)cn(C)c2=O)nc1 (configuration not stated) | 164 to 166
17 | O=C(Cc1ccc2ccn(C3CCN(CCc4ccc(F)cc4)CC3)c2c1)NCCO | 140 to 141
18 | CC(C)(CNC(=O)C(C)(C)CCC(=O)O)SN=O | 100 to 101
19 | Cc1ccc(COC(=O)NC(CO)Cc2ccc(O)cc2)cc1 (configuration not stated) | 128 to 129
20 | O=C(Cn1c(=O)sc2ncc(Cl)cc21)N1CCN(CCO)CC1 | 198 to 200
21 | Nc1nc(-c2cc(Cl)ccc2Cl)nc(N2CCN(C(c3ccccc3)c3ccccc3)CC2)n1 | 217 to 218
22 | CCOC(=O)c1cn(C2CC2)c2c(F)c(N3CC(CNC(C)=O)C3)c(F)cc2c1=O | 170 to 190
23 | Cc1ccc(S(=O)(=O)NC[C@@H]2C[C@@H](S)CN2S(=O)(=O)c2ccc3ccccc3c2)cc1 | 175

Row | Compound | melting point [°C]
24 | COc1ccc2c(c1)c(SC(C)C)c(C(N)=O)n2C | 122 to 124
25 | O=S(=O)(c1ccc(S)cc1)c1ccc(S)cc1 | 138 to 140
26 | CC(C)(C)OC(=O)N1CCN(c2ccc(OCC3(C)CCn4cc([N+](=O)[O-])nc4O3)cc2)CC1 (configuration not stated) | 208 to 209
27 | CCS(=O)(=O)c1c(Cl)nc(Cl)nc1Cl | 135 to 136
28 | Cc1ccc(-c2nc(Cc3cc4cc(CCl)ccc4o3)c(C)o2)cc1 | 145 to 146
29 | CCOC(=O)c1ccccc1NCC(=O)N(C)c1ccccc1 | 100
30 | CCC(Oc1ccc(C(C)(C)CC)cc1C(C)(C)CC)C(=O)Nc1cc(OC(C)=O)c(C)c(Cl)c1O (configuration not stated) | 188 to 190
31 | Nc1sc2c(c1C(=O)c1ccc(Cl)cc1)CCNC2 | 164 to 166
32 | CC(=O)Nc1ccc(-c2nn(C(C)=O)c3c2Cc2ccccc2-3)cc1 | 245 to 246
33 | CN1CC(OCC=C(Cl)Cl)(C(F)(F)F)c2cc(Cl)ccc2NC1=O (configuration not stated) | 149 to 150
34 | Cc1nc(-c2cc(C(C)(C)C)c3c(c2)C(C)(C)CO3)no1 | 81 to 82
35 | ClCc1coc(-c2ccc(OCc3ccccc3)cc2)n1 | 119 to 120
36 | COc1ccc([N+](=O)[O-])cc1OCCO | 115
37 | CN(C)Cc1ccc(CSCCNC(=N)N[N+](=O)[O-])o1 | 103 to 104
38 | CC(=Cc1cn(-c2cccnc2)c2ccccc12)C(=O)O | 213 to 215
39 | CC(/C=C/C(Br)=C(/C)c1ccc2c(c1)C(C)(C)CCC2(C)C)=C\C(=O)O | 189 to 190
40 | COc1ccc(NC(=O)c2ccccc2-c2cccc(OC)c2)cc1 | 107 to 109
41 | CC(C)c1c(CO)c(-c2ccc(F)cc2)nn1-c1ccccc1 | 144 to 147
42 | N#Cc1cc(-c2ccccc2)c(C(=O)O)cn1 | 270 to 272
43 | CCc1ccc(-c2ncccc2S(=O)(=O)Nc2ncc(C)nc2OC)cc1 | 73
44 | O=C(O)CSC(CCCCNS(=O)(=O)c1ccc(Cl)cc1)CCCc1cccnc1 (configuration not stated) | 78 to 80
45 | COc1ccc(Cn2c(O)nc3c(-c4ccco4)ncnc32)cc1 | 143 to 144
46 | COC(=O)c1ccc(OCCNC(=O)C2Cc3ccccc3N2S(=O)(=O)c2ccc(-c3ccc(F)cc3)cc2)cc1 (configuration not stated) | 70 to 72

Further lines, results first:

Row | melting point [°C] | Compound
47 | > 243 | O=C(O)c1c2nc3cc(Cl)c(Br)cc3c-2[nH]c2ccccc12
48 | 129 to 130 | CCOCC(=NO)C(C)(C)NOC(CNC(C)(C)C(C)=NO)Cn1ccnc1[N+](=O)[O-] (configuration not stated)
49 | 125 to 126 | CCOc1cc2c(c3c1OC(C)(C)C3)C(c1ccccc1)=[N+]([O-])C(C)(C)C2
50 | 86 to 87 | CC(=O)N1CC(C)(C)c2cc(OC(C)C)ccc21
51 | 186 to 187 | Cc1c(NC(=O)c2ccc(OCc3ccccc3)cc2)ccc2cc(CN3CCCCC3)cnc12
52 | 162 to 165 | N#Cc1cc(N)ccc1CN1CCC(N2CCOCC2)CC1
53 | 114 to 116 | CC(C)(C(=O)c1ccc(N2CCOCC2)cc1)N1CCOCC1
54 | 49 to 52 | CCOC(=O)CNc1c(C)cccc1[N+](=O)[O-]
55 | 155 to 156 | O=C1NCCc2ccccc2N1OCCCCN1CCN(c2cccc(C3CC3)n2)CC1
56 | > 250 | CC(CF)(CF)n1cc(C(=O)O)c(=O)c2cc(F)c(N3C[C@@H]4NCCO[C@@H]4C3)cc21
57 | 126 to 128 | CCNc1ccc(-c2cc3ccccc3o2)cc1
58 | 63 to 66 | CC(C)(C)OC(=O)Nc1ccc(-c2ccccc2F)cc1NC(=O)CC(=O)c1sccc1C#N
59 | 180 to 182 | CSc1nccc(-n2nnc3ccccc32)n1
60 | 183 to 185 | CC(C)(C)c1nc(CN2C(=O)C3(COc4cc5c(cc43)OCO5)c3ccccc32)no1 (configuration not stated)
61 | 100 to 103 | Cc1ccc(S(=O)(=O)OCC2Cc3cccc(-c4ccccc4Cl)c3O2)cc1 (configuration not stated)
62 | 208 to 210 | COc1cc2ncnc(N3CCN(C(=S)Nc4ccccn4)CC3)c2cc1OC
63 | 62 to 63 | C#CCN(CC#C)c1cc(OC)c(OC)c(OC)c1
64 | 84 to 85 | Cc1sc(-c2ccccc2)nc1COc1cc(CO)on1
65 | 185 to 187 | O=C(O)CCCC1NCC2CCCN3CCCC1C23 (configuration not stated)
66 | 113 to 114 | COC=Nc1cc(-c2ncon2)nn1-c1c(Cl)cc(C(F)(F)F)cc1Cl
67 | 102 to 103 | CCOC(=O)C(NC(=O)c1ccc(C)c(F)c1)C(=O)OCC
68 | 104 to 105 | C=CCOc1ccccc1S(N)(=O)=O
69 | 186 to 187 | COc1ccc(-c2c(CO)c(CO)c3n2-c2ccc(OC)cc2C3)cc1
70 | 106 | CCCN(CCCc1c[nH]c2ccc(F)cc12)C1COc2ccc3ncccc3c2C1 (single isomer, unassigned; (+))
71 | 131 to 133 | CC(C)(C)OC(=O)CN1CCC(CNC(=O)N2CCN(C3CCN(C(=O)OC(C)(C)C)CC3)CC2)CC1
72 | 232 to 233 | O=S(=O)(Nc1cccc2cc(-c3ncns3)[nH]c12)c1cccs1

Row | melting point [°C] | Compound
73 | 108 to 109 | COc1cc2c(cc1OC)CC(NC(=O)C1CCCN1)CC2 (configuration not stated)
74 | 173 to 176 | CCCCc1nc2c(N)nc3ccccc3c2n1CCCCN1CCCS1(=O)=O
75 | 105 to 107 | COc1ccc2c(c1)c(CC(=O)N(C(=O)NC1CCCCC1)C1CCCCC1)c(C)n2-c1ncnc2cc(Cl)ccc12
76 | 110 to 112 | CNC(=O)OCc1c(COC(=O)NC)c(-c2ccc(OC)cc2)n2c1Cc1cc(OC)ccc1-2
77 | 144 to 146 | Cc1c(Cl)cccc1N=c1scc(-c2ccc(Cl)c(S(=O)(=O)N(C)C)c2)n1C
78 | 183 to 185 | OC(CBr)C(O)C(O)C(O)CBr (configuration not stated)
79 | 114 to 117 | CCC(CC)OC(=O)N1CCC(c2nc3cc(-c4ccc(-n5cnnn5)cc4F)ccc3o2)CC1
80 | 81 to 82 | O=C1N(Cc2cccnn2)c2ccccc2C12COc1cc3c(cc12)CCO3 (configuration not stated)
81 | 191 | CNC(=NCCSCc1ccc2nc[nH]c2c1)NC#N
82 | 179 to 181 | CCn1nc2c(N)nc3ccccc3c2c1CCc1ccccc1
83 | > 250 | O=C(Nc1nccs1)c1nc(-c2ccc(C(F)(F)F)cc2)[nH]c1-c1ccc(F)cc1
84 | 208 to 210 | Cc1cc2c(-c3ccccc3Cl)c(NC(=O)Nc3cccc(Cl)c3)c(=O)n(C)c2cc1C
85 | 73 to 76 | COC(=O)c1cccc(Oc2cccc(-c3nnc(N(Cc4ccc(C(F)(F)P(=O)(O)O)c(Cl)c4)c4ccc(Cl)c(Cl)c4)s3)c2)c1
86 | 80 to 81 | CCOC(=O)c1nnn(-c2ccccc2)c1Cl
87 | 210 to 212 | NC(=O)c1cnn2c1N(C(=S)NC(=O)c1ccccc1)CC=C2c1cccc(C(F)(F)F)c1
88 | 125 to 130 | CCN(CC)CCOC(=O)c1ccc2nc3n(c(=O)c2c1)C(C)CC3=Cc1ccccc1 (configuration not stated)
89 | 62 to 70 | CCCCCCN(Cc1ccc2ccccc2c1)c1c(N[C@@H](Cc2ccccc2)C(=O)O)c(=O)c1=O
90 | 151 to 153 | Clc1ccccc1C1=NN=C(c2ccccc2Cl)C(c2ccccc2)C1 (configuration not stated)
91 | 57 to 59 | CCOC(=O)Cc1sc(Sc2cc(C(F)(F)F)ccn2)nc1C
92 | 235 | CSc1ccc2ccc(N3C(=O)c4ccccc4C3=O)nc2n1
93 | 100 to 101 | Nc1ccccc1N1CCN(CCCOc2cccc3c2CCCC3)CC1
94 | 44 to 45 | O=C(Cl)COc1ccc(Cl)cc1Cl
95 | 100 to 101 | CCOC(=O)CCC(=O)c1ccc(-c2ccccc2)cc1
96 | 136 to 137 | O=C(O)CCc1ccc(OCc2sc3ccccc3c2Cl)cc1
97 | 304 to 306 | COc1cc(C2=Nc3ccc(N4CCCC4)cc3C(=O)C2)ccc1OCc1ccccc1
